Tested on: Gloeocapsa magma
Test: Biological testing: visual rating of Gloeocapsa magma growth on inoculated plywood panels dipped in test solutions
Assay type: cell-based
Details: for effect on biocidal activity when combined with DDAC and/or BAC (QAC): QAC or QAC mixture and additive at concentrations as in the tables, data not shown for urea and urea dihydrochloride
Experimental: Test Solutions and Tests: To prepare the various QAC solutions, the following materials where used: Stepan BTC 1010 (50% aqueous solution of didecyl dimethyl ammonium chloride) and Stepan BTC 12 Special (50% aqueous solution of alkyl dimethyl benzyl ammonium chloride). Urea Monohydrochloride was prepared by reacting solid urea with hydrochloric acid 20BE (32% aqueous solution) at a ratio of one Mol active HCl to one Mol urea. Both Urea and HCl 20 BE are readily commercially available.
Biological testing: Gloeocapsa magma was chosen as a bacterial species that served as a model system for corona virus in terms of surface adhesion and membrane characteristics. The bacteria were cultured in a petri dish and inoculated on plywood panels (10×10 cm). […] The panels were dipped in the testing solutions for 10 seconds and left to dry. 24 hours post immersion each panel was examined for presence of green (living bacteria). This was done visually and rated from 0 (no growth)) to 5 (full growth coverage).

SMILES	effect on biocidal activity when combined with DDAC and/or BAC (QAC)	biocidal effect (0.9% of DDAC in combination with the urea or other nitrogenous base-hydrochloride in water)
Cl.Cl.NC(N)=O [urea dihydrochloride]	no impact in biocidal activity	–
Cl.NC(N)=O [UMC, Urea Monohydrochloride]	synergistic effect	–
CCCCCCCCCC[N+](C)(C)CCCCCCCCCC.[Cl-] [DDAC, didecyl dimethyl ammonium chloride]	–	same biocidal effect as 3% DDAC alone in water
NC(N)=O [urea]	no impact in biocidal activity	–
